Assays:
Candida albicans = assay: Minimal inhibitory concentration (MIC) of AmB, microwell dilution; type: cell-based; settings: 35° C., 24 hr
Experimental: (§1) AmB in PEO-b-PHSA micelles was dissolved in isotonic sodium chloride solution giving an AmB level of 200 μg/ml. AmB was dissolved in DMSO and diluted further with the isotonic sodium chloride solution to give the same concentration. The level of DMSO in the final solution was <1% v/v. Samples of PEO-b-PHSA micelles in sodium chloride solution were also used as controls. Solutions of 20 μl from these samples were diluted with the culture medium (RPMI 1640) (80 μl) in the first microwell. The next 11 microwells had serial two-fold diluted solutions. To each microwell, 100 μl of the inoculum containing 5×10^3 CFU/ml of fungal pathogen (Candida albicans, Aspergillus fumigatus or Cryptococcus neoformans) in culture medium was added, giving a total volume of 200 μl per well. Microwell containers were incubated at 35° C. for 24 hr. Organism and medium controls were performed simultaneously to check the growth of organisms and sterility of culture medium, respectively. […] All tests were repeated three times.

Cryptococcus neoformans = assay: as above; type: cell-based; settings: 35° C., 24 hr
Experimental: as §1

Aspergillus fumigatus = assay: as above; type: cell-based; settings: 35° C., 24 hr
Experimental: as §1

[1] = UV/VIS spectroscopy, I/IV ratio (self-aggregation state of AmB); type: physicochemical; settings: intensity at 348 nm to 409 nm, 4 μg/ml AmB, PBS pH 7.4
Experimental: Freeze-dried samples of AmB in PEO-b-PHSA micelles with 11 and 70% stearate substitution were dissolved in PBS, pH=7.4, at 4 μg/ml of AmB. DMSO was used to solubilize AmB in PBS, pH=7.4, at a similar concentration. The level of DMSO in the final sample was <1% (v/v). The UV/VIS spectra of AmB in different samples were recorded from 300 nm to 450 nm.

human red blood cells = assay: Hemolytic activity of AmB toward human red blood cells; type: cell-based; settings: human RBCs, 37° C., 30 min
Experimental: Human blood was collected and centrifuged (2000 rpm). The supernatant and buffy coat were pipetted off and the red blood cells (RBCs) were diluted with an isotonic phosphate buffer, pH 7.4. The proper dilution factor was estimated from the UV/VIS absorbance of hemoglobin at 576 nm in the supernatant after RBCs were lysed by 20 μg/ml of AmB. A properly diluted sample of RBCs gives an absorbance of 0.4-0.5. Solutions of diluted RBCs (2.5 ml) with varied levels of AmB in different samples were incubated at 37° C. for 30 min. Samples were then placed in ice to stop hemolysis. The unlysed RBCs were removed by centrifugation at 14,000 rpm (about 7000×g) for 20 sec. The supernatant was collected and analyzed for hemoglobin by UV/VIS spectroscopy at 576 nm. The percent of hemolyzed RBCs was determined using this equation: % hemolysis=100(Abs−Abso)/(Abs100−Abso), where Abs, Abso and Abs100 are the absorbance for the sample, control with no AmB and control in the presence of 20 μg/ml AmB, respectively.

In the case of C[C@@H]1[C@H](O)[C@@H](C)/C=C/C=C/C=C/C=C/C=C/C=C/C=C/[C@H](O[C@@H]2O[C@H](C)[C@@H](O)[C@H](N)[C@@H]2O)C[C@@H]2O[C@](O)(C[C@@H](O)C[C@@H](O)[C@H](O)CC[C@@H](O)C[C@@H](O)CC(=O)O[C@H]1C)C[C@H](O)[C@H]2C(=O)O [AmB, Amphotericin B], the “MIC, AmB level inhibiting growth of C. albicans” value (Candida albicans) is reported as 0.3 µg/mL, the “MIC, AmB level inhibiting growth of C. neoformans” value (Cryptococcus neoformans) is reported as 0.3 µg/mL and the “MIC, AmB level inhibiting growth of A. fumigatus” value (Aspergillus fumigatus) is reported as 0.45 µg/mL. The I/IV ratio [1] was “about 1.2” and the “AmB level causing 100% hemolysis” value (human red blood cells) was “about 1 μg/ml”.
